Assay results as given in PMC10486429, “Investigations Using Albumin Binders to Modify the Tissue Distribution Profile of Radiopharmaceuticals Exemplified with Folate Radioconjugates” (Cancers, 2023).

Assays:
[1] = biological target: T1, mouse serum albumin (MSA) in mouse plasma (Mus musculus, UniProt P07724); test: Ultrafiltration albumin-binding assay of 177Lu-RedFols, mouse plasma; details: for Relative albumin-binding affinity: mouse blood plasma, inverse B50 ratio, normalized to the respective (6R or 6S) RedFol-1, set as 1.0; for Albumin-bound fraction: undiluted mouse blood plasma
T1 construct: tissue Rockland Immunochemicals, Inc. Lot No. 32321; host or cells: mouse blood plasma, undiluted and diluted in PBS
Method: (§1) S11. Relative Albumin-Binding Properties of 177Lu-RedFols
human blood plasma was determined and compared.
Switzerland; HSA: ⁓800 µM), respectively. An ultrafiltration method was applied accord-
ples at 37 °C for 30 min.
unbound) fractions of each sample. The inserts of the filter devices were inverted and
were presented as average of 3 independent experiments.

[2] = biological target: human serum albumin (HSA) in human plasma (Homo sapiens, UniProt P02768); test: Ultrafiltration albumin-binding assay of 177Lu-RedFols, human plasma; details: for Relative albumin-binding affinity: human blood plasma, inverse B50 ratio, normalized to the respective (6R or 6S) RedFol-1, set as 1.0; for Albumin-bound fraction: undiluted human blood plasma
Method: An ultrafiltration method was applied according to a previously published procedure (Supplementary Materials Section S11) that was different from the one reported for the ^177Lu-DOTA-ALBs to prevent non-specific binding to the filter units. Briefly, the albumin-bound fraction was determined at different molar concentration ratios of serum albumin relative to the ^177Lu-labeled RedFols using a blood plasma/PBS dilution series and constant amounts of the respective ^177Lu-labeled folate conjugate (0.3 MBq; 0.006 nmol). The albumin-bound fraction was separated from the free (albumin-unbound) fraction of each sample using Amicon centrifugal filters (cut-off of 10 kDa; Merck Millipore, Carrigtwohill, Ireland). The inserts of the filter devices were inverted and centrifuged to recover the albumin-bound fraction, whereas filter-bound activity was considered as free (albumin-unbound) folate radioconjugate. The activity of the different fractions was measured using a γ-counter (Perkin Elmer, Wallac Wizard 1480, Waltham, MA, USA), and the proportion of albumin-bound radioconjugate was set in relation to the total activity measured. The data were analyzed in analogy to those of ^177Lu-DOTA-ALBs (Section 2.1.3). The relative albumin-binding affinity was assessed by calculating the inverse ratio of the B50 value of each 6R-5-MTHF-based folate radioconjugate to the B50 value of [^177Lu]Lu-6R-RedFol-1 (set as 1.0) and of each 6S-5-MTHF-based folate radioconjugate to the B50 value of [^177Lu]Lu-6S-RedFol-1 (set as 1.0). The results were presented as average ± SD of n = 3 independent experiments. […]
as §1
Purpose: The affinity of the folate radioconjugates to serum albumin in mouse and human blood plasma was determined and compared.
Methods: The albumin-binding affinity of the 177Lu-RedFols was assessed using mouse plasma (Rockland Immunochemicals, Inc., Pottstown, PA, USA, Lot N: 32321; MSA: ⁓550 µM) and human plasma (Stiftung Blutspende SRK Aargau-Solothurn, Aarau, Switzerland; HSA: ⁓800 µM), respectively. An ultrafiltration method was applied accord-ing to a previously published procedure that was different from the one reported for the 177Lu-DOTA-ALBs to avoid non-specific binding to the filter units.
The folate radioconjugates (50 MBq/nmol, ~300 kBq, 6 pmol in 15 µL) were added to samples of mouse and human blood plasma (150 µL), followed by incubation of the sam-ples at 37 °C for 30 min. The samples were loaded on Amicon centrifugal filters (cut-off of 10 kDa; Merck Millipore, Carrigtwohill, Ireland) followed by centrifugation (14000 rcf, 30 min, 4 °C) to allow the separation of the serum albumin-bound from the free (albumin-unbound) fractions of each sample. The inserts of the filter devices were inverted and centrifuged at 200 rcf for 3 min to recover the albumin-bound fraction. The activity of the albumin-bound fraction as well as the activity in the filtrate and in the filter unit were measured separately in a γ-counter (Perkin Elmer, Wallac Wizard 1480, Waltham, MA, USA). The percentage of radioconjugate bound to mouse and human albumin, respec-

T1 sequence (P07724 25-608): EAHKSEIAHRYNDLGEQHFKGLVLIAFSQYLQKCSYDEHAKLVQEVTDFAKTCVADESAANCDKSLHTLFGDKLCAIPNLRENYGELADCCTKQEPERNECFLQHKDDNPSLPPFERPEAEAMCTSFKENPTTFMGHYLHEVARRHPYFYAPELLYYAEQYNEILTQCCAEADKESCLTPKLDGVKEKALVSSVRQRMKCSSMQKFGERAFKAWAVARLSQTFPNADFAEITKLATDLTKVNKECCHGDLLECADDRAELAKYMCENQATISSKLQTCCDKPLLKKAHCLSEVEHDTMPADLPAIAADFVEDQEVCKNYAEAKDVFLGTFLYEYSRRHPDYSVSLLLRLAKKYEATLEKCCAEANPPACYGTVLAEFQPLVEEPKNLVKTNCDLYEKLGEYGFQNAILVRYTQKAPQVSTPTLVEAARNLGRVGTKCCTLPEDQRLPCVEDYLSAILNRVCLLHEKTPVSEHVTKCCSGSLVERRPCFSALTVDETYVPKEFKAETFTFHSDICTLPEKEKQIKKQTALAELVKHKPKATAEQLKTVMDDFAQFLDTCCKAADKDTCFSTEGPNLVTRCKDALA
Chain of human serum albumin (HSA) in human plasma (P02768 25-609): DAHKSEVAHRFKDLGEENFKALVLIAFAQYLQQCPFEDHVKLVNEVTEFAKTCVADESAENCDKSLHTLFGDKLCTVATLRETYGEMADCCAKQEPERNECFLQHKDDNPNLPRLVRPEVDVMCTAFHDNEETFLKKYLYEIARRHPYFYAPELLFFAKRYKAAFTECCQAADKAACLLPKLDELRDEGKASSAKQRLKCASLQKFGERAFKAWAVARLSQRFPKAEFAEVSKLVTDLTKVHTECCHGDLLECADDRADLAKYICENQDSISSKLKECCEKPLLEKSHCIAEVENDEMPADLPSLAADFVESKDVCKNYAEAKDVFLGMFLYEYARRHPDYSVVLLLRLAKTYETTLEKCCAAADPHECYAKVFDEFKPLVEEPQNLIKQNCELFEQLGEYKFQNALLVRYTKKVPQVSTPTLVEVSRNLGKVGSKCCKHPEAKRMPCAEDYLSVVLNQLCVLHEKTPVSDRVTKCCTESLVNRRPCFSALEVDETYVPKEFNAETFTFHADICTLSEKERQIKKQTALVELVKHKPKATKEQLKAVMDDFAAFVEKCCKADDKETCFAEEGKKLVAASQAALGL

SMILES	Relative albumin-binding affinity [1]	Albumin-bound fraction [1]	Relative albumin-binding affinity [2]	Albumin-bound fraction [2]
CN1c2c(nc(N)[nH]c2=O)NCC1CNc1ccc(C(=O)NC(CCC(=O)NC(CCCCNC(=O)CN2CCN(CC(=O)[O-])CCN(CC(=O)[O-])CCN(CC(=O)[O-])CC2)C(=O)NC(CCCCNC(=O)CCCc2ccc(I)cc2)C(=O)O)C(=O)O)cc1.[177Lu+3] (stereo not drawn) [[^177Lu]Lu-6S-RedFol-1]	1.0	93%	1.0	98%
CN1c2c(nc(N)[nH]c2=O)NC[C@H]1CNc1ccc(C(=O)N[C@@H](CCC(=O)N[C@@H](CCCCNC(=O)CN2CCN(CC(=O)O)CCN(CC(=O)O)CCN(CC(=O)O)CC2)C(=O)N[C@@H](CCCCNC(=O)c2ccc(CNC(=O)CCCc3ccc(I)cc3)cc2)C(=O)O)C(=O)O)cc1 [[^177Lu]Lu-6R-RedFol-3, metal not drawn]	8.4	97%	1.1	97%
CN1c2c(nc(N)[nH]c2=O)NC[C@H]1CNc1ccc(C(=O)N[C@@H](CCC(=O)N[C@@H](CCCCNC(=O)CN2CCN(CC(=O)O)CCN(CC(=O)O)CCN(CC(=O)O)CC2)C(=O)N[C@@H](CCCCNC(=O)c2ccc(CNC(=O)CCCCc3ccc(I)cc3)cc2)C(=O)O)C(=O)O)cc1 [[^177Lu]Lu-6R-RedFol-25, metal not drawn]	1.4	94%	0.5	96%
CN1c2c(nc(N)[nH]c2=O)NCC1CNc1ccc(C(=O)NC(CCC(=O)NC(CCCCNC(=O)CN2CCN(CC(=O)[O-])CCN(CC(=O)[O-])CCN(CC(=O)[O-])CC2)C(=O)NC(CCCCNC(=O)c2ccc(CNC(=O)CCCCc3ccc(I)cc3)cc2)C(=O)O)C(=O)O)cc1.[177Lu+3] (stereo not drawn) [[^177Lu]Lu-6S-RedFol-25]	0.7	92%	0.2	91%
CN1c2c(nc(N)[nH]c2=O)NC[C@H]1CNc1ccc(C(=O)N[C@@H](CCC(=O)N[C@@H](CCCCNC(=O)CN2CCN(CC(=O)O)CCN(CC(=O)O)CCN(CC(=O)O)CC2)C(=O)N[C@@H](CCCCNC(=O)CCCCc2ccc(I)cc2)C(=O)O)C(=O)O)cc1 [[^177Lu]Lu-6R-RedFol-24, metal not drawn]	0.2	73%	0.5	94%
CN1c2c(nc(N)[nH]c2=O)NCC1CNc1ccc(C(=O)NC(CCC(=O)NC(CCCCNC(=O)CN2CCN(CC(=O)[O-])CCN(CC(=O)[O-])CCN(CC(=O)[O-])CC2)C(=O)NC(CCCCNC(=O)c2ccc(CNC(=O)CCCc3ccc(I)cc3)cc2)C(=O)O)C(=O)O)cc1.[177Lu+3] (stereo not drawn) [[^177Lu]Lu-6S-RedFol-3]	3.5	97%	1.1	97%
CN1c2c(nc(N)[nH]c2=O)NC[C@H]1CNc1ccc(C(=O)N[C@@H](CCC(=O)N[C@@H](CCCCNC(=O)CN2CCN(CC(=O)O)CCN(CC(=O)O)CCN(CC(=O)O)CC2)C(=O)N[C@@H](CCCCNC(=O)CCCc2ccc(I)cc2)C(=O)O)C(=O)O)cc1 [[^177Lu]Lu-6R-RedFol-1, metal not drawn]	1.0	93%	1.0	98%
